Paper PMC5668434, “Modulation of telomere protection by the PI3K/AKT pathway” (Nature Communications, 2017)
Where a chain is given by its changes, count along the chain named. Numbers in names are those of the source. Read-outs that look alike come from different tables or passages of the source.

Experiments:
mTOR (FRAP1) = molecular target: T1, mTOR (FRAP1) (Homo sapiens, UniProt P42345); assay: mTOR biochemical assay (LanthaScreen); conditions: for IC50: internal data
T1 construct: purchased ThermoFisher PV4753

PI3Kα = conditions: reported in literature, cited from earlier work
PI3Kβ = conditions: reported in literature, cited from earlier work
PI3Kγ = conditions: reported in literature, cited from earlier work
mTOR = conditions: reported in literature; cited from earlier work
[1] = system: TRF1 foci in CHA-9.3 mouse lung tumor cell line; assay: TRF1 foci immunofluorescence in CHA-9.3 cells; assay type: cell-based; conditions: for Inhibition of TRF1 foci (in words): 10 μM (GSK-2126458 1.0 μM)
Method: TRF1 immunofluorescence of TRF1 was performed in lung tumor-derived cell line (CHA9.3) and in MEFs[39]. A rat monoclonal antibody against mouse TRF1 developed by the Monoclonal antibody unit at CNIO was used to detect endogenous TRF1 (1:500). GFP-TRF1 fluorescence was directly measured in cells fixed in paraformaldehyde. For quantification of TRF1 foci intensity, pictures of fixed cells were automatically acquired from each well by the Opera HCS system (Perkin Elmer). Sixty images of random fields per well, with a 40× magnification lens, were taken under non-saturating conditions. At least 1 × 10^3 cells were analyzed for each well. Briefly, images were segmented using the DAPI staining to generate masks matching cell nuclei from which-TRF1 foci were analyzed.

PI3Kδ = conditions: reported in literature, cited from earlier work
PI3K (p110α) = molecular target: T2, PI3K (p110α) (Homo sapiens, UniProt P42336); assay: PI3K alpha biochemical assay (ADP Hunter Plus); conditions: for IC50: internal data, read-out: PI3Kα IC50
T2 construct: purchased Cama Biosciences (sic; Carna Biosciences) #07CBS-0402A

[2] = system: p-AKT S473 in CHA-9.3 mouse lung cancer cell line; assay: Western blot of AKT phosphorylation at Ser473 in CHA-9.3 cells; assay type: cell-based; conditions: for p-AKT S473 inhibition (in words): 10 μM time course; for inhibition at 10 µM: Mus musculus, read-out: Inhibition pAKT (Ser 473) with regard to DMSO
Method: These new chemical probes were prepared by replacement of a single key oxygen atom from the morpholine moiety by a methylene group, generating the piperidine derivatives ETP-51259 and ETP-50952 (Fig. 1a). To assess their PI3K cellular activity, we measured phosphorylation of residue Ser473 in AKT (p-AKT S473), a PI3K downstream target[61]–[63], by western blot analysis. To this end, we used the CHA-9.3 mouse lung cancer cell line previously generated by us[39]. […] Of note, the inhibitory activity of ETP-47037 was more prolonged than that of ETP-47228. Thus, ETP-47037 mediated p-AKT S473 inhibition was maintained during the 24-hour treatment while the ETP-47228 mediated inhibition decreased 35% after 24 h as compared to 1-h treatment but still was able to inhibit the pathway above 50% (Fig. 1c).
For detection of AKT, PRAS40 (T246) and pS6 in CHA9.3 cells, untreated control (DMSO) or treated with the indicated inhibitors, were lysed in RIPA buffer supplemented with 100 mM pefablock (Roche Diagnostics) and protease inhibitor cocktail (Roche Molecular Biochemicals). Proteins were resolved on 10% SDS-PAGE, and transferred to nitrocellulose membrane (Amersham^TM Protan^TM 0.2 µm nNC). Membranes were incubated with antibodies against phospho-AKT (Ser473), AKT, phospo-S6 (Ser 235/236), and S6Ribosomal from Cell Signaling, phospo-PRAS40 (Thr246) from BIOSURCE and anti α-tubulin form Sigma, overnight at 4 °C. After washing, blots were incubated with secondary antibody: Alexa Fluor 680 goat anti-rabbit IgG (Invitrogen) or anti-mouse IgG DyLight 800 conjugated (Thermo Scientific), and visualized using an Odyssey infrared imaging system (Li-Cor Biosciences).

[3] = system: TRF1 mRNA in CHA 9-3 lung cancer cells; assay: TRF1 mRNA by qPCR; assay type: cell-based, mouse; conditions: 10 μM, 24 h
[4] = molecular target: the molecule itself; assay: western blot after SDS-PAGE in non-reducing conditions; nuclear extracts of Trf1-deleted MEFs expressing the GFP-tagged TRF1 variant, prepared without dithiothreitol and 2-mercaptoethanol, not heated before gel loading; blot against TRF1; one wild-type sample in reducing conditions shows the monomer

T2 sequence (P42336 whole entry): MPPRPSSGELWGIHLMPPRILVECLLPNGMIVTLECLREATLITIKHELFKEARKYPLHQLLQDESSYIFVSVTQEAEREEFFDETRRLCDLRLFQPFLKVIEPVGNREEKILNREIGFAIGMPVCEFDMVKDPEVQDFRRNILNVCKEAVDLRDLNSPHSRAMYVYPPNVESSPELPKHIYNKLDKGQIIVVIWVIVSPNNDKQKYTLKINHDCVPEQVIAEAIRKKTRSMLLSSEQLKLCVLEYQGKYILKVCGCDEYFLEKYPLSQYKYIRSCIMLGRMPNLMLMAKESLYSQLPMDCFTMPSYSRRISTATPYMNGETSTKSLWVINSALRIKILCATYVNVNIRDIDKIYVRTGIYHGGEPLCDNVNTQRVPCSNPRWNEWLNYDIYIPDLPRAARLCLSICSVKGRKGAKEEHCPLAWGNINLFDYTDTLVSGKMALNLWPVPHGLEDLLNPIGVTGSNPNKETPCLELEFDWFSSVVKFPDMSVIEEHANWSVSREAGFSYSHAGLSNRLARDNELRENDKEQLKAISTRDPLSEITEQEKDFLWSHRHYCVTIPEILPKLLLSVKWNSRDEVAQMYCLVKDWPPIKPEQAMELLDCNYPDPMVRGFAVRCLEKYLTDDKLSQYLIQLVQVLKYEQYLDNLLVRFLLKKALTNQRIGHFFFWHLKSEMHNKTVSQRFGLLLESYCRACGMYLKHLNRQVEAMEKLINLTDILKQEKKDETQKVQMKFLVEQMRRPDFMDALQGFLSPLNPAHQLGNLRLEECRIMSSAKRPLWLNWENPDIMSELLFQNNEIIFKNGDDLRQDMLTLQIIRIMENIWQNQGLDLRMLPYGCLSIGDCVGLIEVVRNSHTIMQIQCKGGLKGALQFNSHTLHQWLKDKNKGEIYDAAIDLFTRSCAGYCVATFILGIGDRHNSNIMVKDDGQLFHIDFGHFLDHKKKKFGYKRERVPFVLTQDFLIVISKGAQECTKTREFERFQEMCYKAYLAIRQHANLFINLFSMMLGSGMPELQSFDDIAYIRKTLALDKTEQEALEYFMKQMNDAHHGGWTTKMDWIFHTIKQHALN
T2 sequence (P27986 whole entry partner): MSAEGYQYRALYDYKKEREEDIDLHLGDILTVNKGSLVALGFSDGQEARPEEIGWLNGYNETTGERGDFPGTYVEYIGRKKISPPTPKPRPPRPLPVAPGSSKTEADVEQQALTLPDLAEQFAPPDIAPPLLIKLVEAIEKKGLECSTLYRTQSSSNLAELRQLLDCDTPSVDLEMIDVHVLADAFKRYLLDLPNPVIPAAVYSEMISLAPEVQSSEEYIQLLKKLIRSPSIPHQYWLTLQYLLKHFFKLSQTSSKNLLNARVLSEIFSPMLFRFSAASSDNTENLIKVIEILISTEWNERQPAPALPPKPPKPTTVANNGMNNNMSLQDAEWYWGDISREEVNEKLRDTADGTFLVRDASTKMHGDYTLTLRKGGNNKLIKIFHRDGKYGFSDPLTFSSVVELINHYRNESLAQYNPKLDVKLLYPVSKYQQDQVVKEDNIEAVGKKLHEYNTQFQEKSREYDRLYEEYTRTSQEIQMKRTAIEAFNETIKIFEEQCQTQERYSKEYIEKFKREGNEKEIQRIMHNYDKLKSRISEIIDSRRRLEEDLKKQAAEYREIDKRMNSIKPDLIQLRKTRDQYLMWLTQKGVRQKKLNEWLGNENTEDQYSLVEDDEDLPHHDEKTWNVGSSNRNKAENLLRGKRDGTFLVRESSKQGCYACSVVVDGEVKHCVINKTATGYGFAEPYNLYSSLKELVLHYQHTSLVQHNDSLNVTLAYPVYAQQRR
T1 sequence (P42345 1360-2549 limits assumed): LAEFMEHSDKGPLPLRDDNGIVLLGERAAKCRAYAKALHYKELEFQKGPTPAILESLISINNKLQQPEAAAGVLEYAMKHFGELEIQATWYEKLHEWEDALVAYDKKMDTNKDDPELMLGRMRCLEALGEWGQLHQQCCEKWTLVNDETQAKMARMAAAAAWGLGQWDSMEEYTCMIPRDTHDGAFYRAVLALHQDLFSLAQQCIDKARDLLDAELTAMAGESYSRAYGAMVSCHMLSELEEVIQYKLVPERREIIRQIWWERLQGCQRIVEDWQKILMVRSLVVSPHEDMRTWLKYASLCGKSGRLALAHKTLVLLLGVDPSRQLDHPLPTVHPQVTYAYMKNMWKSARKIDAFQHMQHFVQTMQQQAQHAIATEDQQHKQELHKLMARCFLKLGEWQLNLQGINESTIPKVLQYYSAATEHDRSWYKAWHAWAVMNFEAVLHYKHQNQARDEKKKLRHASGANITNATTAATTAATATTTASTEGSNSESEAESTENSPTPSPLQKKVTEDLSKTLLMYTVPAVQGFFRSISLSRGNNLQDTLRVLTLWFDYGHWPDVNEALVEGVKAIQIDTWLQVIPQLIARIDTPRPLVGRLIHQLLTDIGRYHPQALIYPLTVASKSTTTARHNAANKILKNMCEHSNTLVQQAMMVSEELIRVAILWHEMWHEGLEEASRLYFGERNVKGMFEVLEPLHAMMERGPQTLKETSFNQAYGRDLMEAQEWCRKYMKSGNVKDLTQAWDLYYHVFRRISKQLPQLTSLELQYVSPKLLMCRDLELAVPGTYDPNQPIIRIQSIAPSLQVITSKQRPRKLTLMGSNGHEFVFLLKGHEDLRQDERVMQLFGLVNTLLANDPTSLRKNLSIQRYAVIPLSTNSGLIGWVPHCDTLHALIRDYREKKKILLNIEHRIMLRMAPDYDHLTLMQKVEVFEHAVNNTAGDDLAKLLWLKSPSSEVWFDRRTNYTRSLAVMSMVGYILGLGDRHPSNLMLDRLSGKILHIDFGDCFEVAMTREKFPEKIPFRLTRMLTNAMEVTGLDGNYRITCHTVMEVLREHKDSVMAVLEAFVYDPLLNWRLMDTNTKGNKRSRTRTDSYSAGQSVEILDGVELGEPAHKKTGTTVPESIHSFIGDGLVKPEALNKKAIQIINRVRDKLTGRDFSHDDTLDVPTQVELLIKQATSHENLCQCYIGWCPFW

## Cn1c(=O)n(-c2ccc(C(C)(C)C#N)cc2)c2c3cc(-c4cnc5ccccc5c4)ccc3ncc21 [BEZ-235]
mTOR (FRAP1)
  mTOR inhibition (in words): potent nanomolar mTOR inhibition
PI3Kα
  IC50: 4 nM
PI3Kβ
  IC50: 5 nM
PI3Kγ
  IC50: 75 nM
mTOR
  IC50: […]

## CC(C)C[C@H](NC(=O)[C@H](Cc1ccccc1)NC(=O)c1cnccn1)B(O)O [Bortezomib, reference compound]
[1]; bortezomib 50 nM, CHA 9-3
  TRF1 intensity levels: twofold increase

## COCCNC(=O)c1nc2c(N3CCOCC3)nc(-c3cnc(N)nc3)cn2c1C [ETP-46992]
mTOR (FRAP1)
  IC50: 3690 nM
PI3Kα; read-out: Reported data PI3Kα Kiapp
  Ki: 2.4 nM
PI3Kβ; read-out: Reported data PI3Kβ Kiapp
  Ki: […]
PI3Kδ; read-out: Reported data PI3Kδ Kiapp
  Ki: […]
PI3Kγ; read-out: Reported data PI3Kγ Kiapp
  Ki: […]
mTOR
  IC50: > 3000 nM

## Cc1cnc2c(N3CCCCC3)nc(-c3ccc(NC(=O)Nc4ccc(C(=O)N5CCN(C)CC5)cc4)cc3)cn12 [ETP-50952]
PI3K (p110α)
  Activity against PI3K (in words): negligible activity against PI3K
  IC50: 9000 nM
mTOR (FRAP1)
  IC50: > 10000 nM
[2]
  p-AKT S473 inhibition (in words): largely unaffected
[2]; 1 h, 1 h
  inhibition at 10 µM: 38%
[2]; 4 h, 4 h
  inhibition at 10 µM: 18%
[2]; 24 h, 24 h
  inhibition at 10 µM: 10%
[1]; 24 h, CHA-9.3
  Inhibition of TRF1 foci (in words): negligible inhibition of TRF1 foci

## CS(=O)(=O)N1CCN(Cc2cc3c(N4CCCCC4)nc(-c4cnc(N)nc4)cn3n2)CC1 [ETP-51259]
PI3K (p110α)
  Activity against PI3K (in words): negligible activity against PI3K
  IC50: > 10000 nM
mTOR (FRAP1)
  IC50: > 10000 nM
[2]
  p-AKT S473 inhibition (in words): largely unaffected
[2]; 1 h, 1 h
  inhibition at 10 µM: 48%
[2]; 4 h, 4 h
  inhibition at 10 µM: 49%
[2]; 16 h, 16 h
  inhibition at 10 µM: 4%
[1]; 24 h, CHA-9.3
  Inhibition of TRF1 foci (in words): negligible inhibition of TRF1 foci

## CS(=O)(=O)N1CCN(Cc2cc3nc(-c4cccc5[nH]ncc45)nc(N4CCOCC4)c3s2)CC1 [GDC-0941, 2-(1H-indazol-4-yl)-6-(4-methanesulfonyl-piperazin-1-ylmethyl)-4-morpholin-4-yl-t hieno[3,2-d]pyrimidine]
[3]
  TRF1 mRNA levels: None of the inhibitors significantly affected
PI3Kβ
  IC50: […]
PI3Kδ
  IC50: […]
PI3Kγ
  IC50: […]

## Cc1cc(C(C)Nc2ccccc2)c2nc(N3CCOCC3)cc(=O)n2c1 (stereo not drawn) [TGX-221, reference compound]
PI3K (p110α)
  PI3Kα inhibition (in words): negligible PI3Kα inhibition
[2]; 10 μM (GSK-2126458 1.0 μM), 24 h
  Phosphorylation of AKT (p-AKT S473) (in words): moderate inhibition
[1]; Mus musculus, 10 μM, 24 h, CHA-9.3, relative to DMSO, read-out: Inhibition of TRF1 foci fluorescence
  inhibition at 10 µM: […]
PI3Kβ
  IC50: […]
  Reported selectivity for PI3Kβ vs. PI3Kα: […]

B1: eGFP-tagged TRF1 wild type (natural protein, mouse, UniProt P70371 1-421, looked up)
chain: MAETVSSAARDAPSREGWTDSDSPEQEEVGDDAELLQCQLQLGTPREMENAELVAEVEAVAAGWMLDFLCLSLCRAFRDGRSEDFRRTRDSAEAIIHGLHRLTAYQLKTVYICQFLTRVASGKALDAQFEVDERITPLESALMIWNSIEKEHDKLHDEIKNLIKIQAVAVCMEIGSFKEAEEVFERIFGDPEFYTPLERKLLKIISQKDVFHSLFQHFSYSCMMEKIQSYVGDVLSEKSSTFLMKAATKVVENEKARTQASKDRPDATNTGMDTEVGLNKEKSVNGQQSTETEPLVDTVSSIRSHKNALSQLKHRRAPSDFSRNEARTGTLQCETTMERNRRTSGRNRLCVSENQPDTDDKSGRRKRQTWLWEEDRILKCGVKKYGEGNWAKILSHYKFNNRTSVMLKDRWRTMKRLKLIS
notes: insert of the retroviral vector eGFP-TRF1 pWzl-Hygro; also called GFP-TRF1; eGFP-TRF1; source: Trf1 lox/lox MEFs, retroviral transduction (eGFP-TRF1 pWzl-Hygro), endogenous Trf1 deleted with Cre, in nuclear extract
[4]
  stoichiometry N: 2

B2: eGFP-tagged TRF1 T330A/S344A (natural protein, mouse, UniProt P70371 1-421, looked up)
chain: B1 chain with T330A, S344A
notes: insert of the retroviral vector eGFP-TRF1 pWzl-Hygro with T330A and S344A; Made by site-directed mutagenesis of the vector of m1 with the primers mTRF1-T330A and mTRF1-S344A; also called TRF1 double mutant; GFP-TRF1 T330A/S344A
[4]
  stoichiometry N: 2

B3: eGFP-tagged TRF1 T330A (natural protein, mouse, UniProt P70371 1-421, looked up)
chain: B1 chain with T330A
notes: insert of the retroviral vector eGFP-TRF1 pWzl-Hygro with T330A; Made by site-directed mutagenesis of the vector of m1 with the primer mTRF1-T330A; also called GFP-TRF1 T330A
[4]
  stoichiometry N: 2

B4: eGFP-tagged TRF1 S344A (natural protein, mouse, UniProt P70371 1-421, looked up)
chain: B1 chain with S344A
notes: insert of the retroviral vector eGFP-TRF1 pWzl-Hygro with S344A; Made by site-directed mutagenesis of the vector of m1 with the primer mTRF1-S344A; also called GFP-TRF1 S344A
[4]
  stoichiometry N: 2

B5: eGFP-tagged TRF1 T248A (natural protein, mouse, UniProt P70371 1-421, looked up)
chain: B1 chain with T248A
notes: insert of the retroviral vector eGFP-TRF1 pWzl-Hygro with T248A; Made by site-directed mutagenesis of the vector of m1 with the primer mTRF1-T248A; also called GFP-TRF1 T248A
[4]
  stoichiometry N: 2
